The assay concerns Helicobacter pylori. Kind of assay: activity against Helicobacter pylori (Columbia agar, growth period of 4 days). Format: cell-based. The conditions noted are these: Columbia agar (Oxoid), approximate values; for MIC50: Helicobacter pylori, 96 h, read-out: Approx. MIC 50.

Structures can show the parent of a compound that is named as a salt. Where only a bound is given, the exact number is not on record here.

Take `Cc1c(SCc2ccco2)ccnc1CSc1ccncc1` [Compound 11, 4-(2-Furylmethylthio)-3-methyl-2-[(4-pyridinylthio)methyl]pyridine]: the MIC50 is no more than 0.5 µg/mL.

With `Cc1c(SCCCSc2ccncc2)ccnc1CSc1ccccn1` [Compound 6], the MIC50 is no more than 0.5 µg/mL.

For the compound `Cc1c(SCCCSC(=S)N(C)C)ccnc1CSc1ccncc1` [Compound 15, 4-[(3-Dimethyldithiocarbamoyl)propylthio]-3-methyl-2-[(4-pyridinylthio)methyl]pyridine], the MIC50 was no more than 0.5 µg/mL.

As for `Cc1c(SCCCSc2ccncc2)ccnc1CSc1ccncc1` [Compound 14, 3-Methyl-2-[(4-pyridinylthio)methyl]-4-[5-(4-pyridinyl)-1,5-dithiapentyl]pyridine], the MIC50 is no more than 0.5 µg/mL.

As to `Cc1c(SCCCn2c([N+](=O)[O-])cnc2C)ccnc1CSc1ncccn1` [Compound 32, 3-Methyl-4-[3-(2-methyl-5-nitroimidazol-1-yl)propylthio]-2-[(2-pyrimidinylthio)methyl]pyridine], the MIC50 was no more than 0.5 µg/mL.

`Cc1c(SCCCSCCn2c([N+](=O)[O-])cnc2C)ccnc1CSc1ccncc1` [Compound 29, 4-[[7-(2-Methyl-5-nitroimidazol-1-yl)-1,5-dithiahept-1-yl]-3-methyl]-2-[(4-pyridinylthio)methyl]-pyridine dihydrochloride]: the MIC50 is no more than 0.5 µg/mL.

In the case of “4-[3-(4-Phenyl-1-piperazinyl)propylthio]-2-[(4-pyridinylthio)methyl]pyridine [Compound 16]”, the “Approx. MIC 50” value was ≤ 0,5 μg/ml.

With `Cc1ncsc1CCSc1ccnc(CSc2ccccn2)c1C` [Compound 3, 3-Methyl-4-[2-(4-methyl-5-thiazolyl)ethylthio]2-[(2-pyridinylthio)methyl]pyridine], the MIC50 is no more than 0.5 µg/mL.

Source of the values: US6162809A, “Pyridylthio compounds for controlling helicobacter bacteria” (Byk Gulden Lomberg Chemische Fabrik GmbH, priority 1994, dated 2000).
